Measured values: ChEMBL document CHEMBL1201862, “PubChem BioAssay data set” (2004)
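Each compound was tested at five concentrations against cells in 96-well plates for 48 hours. The concentration for 50% growth inhibition is given as GI50.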 Activity calls are given as the source filed them. Cut-off read from the data, not from the text of the source: active = GI50 up to about 1.1 µM and inactive = higher. *1 amine or outer side, *2 acyl side, *3 side chain or, on linkers, in order; H or OH if unused. Where a SMILES comes first, the peptide text is derived from it. Bridges are numbered along the chain shown (N, C = ends). [ ]: non-standard residue; d: D form. The star is where a group is joined. X36 = O=C(C(CCCCNO[*:3])N[*:1])[*:2]; Fmoc = O=C(OCC1c2ccccc2-c2ccccc21)*; Boc = CC(C)(C)OC(=O)*

How the values were obtained:
Assay in all cases: NCI-60 cell line screen, 48 h
A549 = tested on: A549
COLO 205 = tested on: COLO 205
DU-145 = tested on: DU-145
HCT-116 = tested on: HCT-116
Hs-578T = tested on: Hs-578T
IGROV-1 = tested on: IGROV-1
M14 = tested on: M14
MDA-MB-231 = tested on: MDA-MB-231
MDA-MB-435 = tested on: MDA-MB-435
MOLT-4 = tested on: MOLT-4
NCI-H23 = tested on: NCI-H23
NCI/ADR-RES = tested on: NCI/ADR-RES
OVCAR-4 = tested on: OVCAR-4
SF-295 = tested on: SF-295
SK-MEL-28 = tested on: SK-MEL-28
SK-MEL-5 = tested on: SK-MEL-5
SNB-19 = tested on: SNB-19
UACC-62 = tested on: UACC-62
UO-31 = tested on: UO-31
LXFL 529 = tested on: LXFL 529

Measured: GI50

COc1ncnc2c(Cl)c(C(O)c3ccccc3)c(Cl)cc12 (stereo unspecified)
inactive: A549 34.8 µM | COLO 205 29.4 µM | DU-145 60.4 µM | HCT-116 17.9 µM | Hs-578T 19.6 µM | IGROV-1 29.3 µM | M14 23.9 µM | MDA-MB-231 18.6 µM | MDA-MB-435 5.57 µM | MOLT-4 24 µM | NCI-H23 41.6 µM | NCI/ADR-RES 28 µM | OVCAR-4 29.1 µM | SF-295 24.4 µM | SK-MEL-28 34.6 µM | SK-MEL-5 26.2 µM | SNB-19 26.6 µM | UACC-62 16.1 µM | UO-31 37.3 µM

Cc1cc2c(C)n(Cc3ccc(Cl)cc3Cl)nc2c(C(=O)O)c1C
inactive: A549 > 100 µM | COLO 205 > 100 µM | HCT-116 > 100 µM | IGROV-1 > 100 µM | LXFL 529 > 100 µM | MOLT-4 > 100 µM | NCI-H23 > 100 µM | SF-295 > 100 µM | SK-MEL-28 > 100 µM | SNB-19 > 100 µM | UACC-62 96.8 µM | UO-31 > 100 µM

OC(c1ccc(Br)cc1)(c1cccs1)C1CC1 (stereo unspecified)
inactive: A549 35.7 µM | COLO 205 19.2 µM | DU-145 26.1 µM | HCT-116 16.3 µM | Hs-578T 22.3 µM | IGROV-1 15.7 µM | M14 21.1 µM | MDA-MB-231 18.3 µM | MDA-MB-435 18.1 µM | MOLT-4 22.1 µM | NCI-H23 22.4 µM | NCI/ADR-RES 25.1 µM | OVCAR-4 22.7 µM | SF-295 21.6 µM | SK-MEL-28 22.2 µM | SK-MEL-5 18.7 µM | SNB-19 41.1 µM | UACC-62 16.4 µM | UO-31 26.7 µM

CCOC(=O)/C(C#N)=C\c1ccc(N(CCC(=O)O)CCC(=O)O)c(I)c1
inactive: A549 > 10 µM | COLO 205 > 10 µM | DU-145 > 10 µM | HCT-116 > 10 µM | Hs-578T > 10 µM | IGROV-1 > 10 µM | M14 > 10 µM | MDA-MB-231 > 10 µM | MDA-MB-435 > 10 µM | MOLT-4 > 10 µM | NCI-H23 > 10 µM | NCI/ADR-RES > 10 µM | OVCAR-4 > 10 µM | SF-295 > 10 µM | SK-MEL-28 > 10 µM | SK-MEL-5 > 10 µM | SNB-19 > 10 µM | UACC-62 > 10 µM | UO-31 > 10 µM

COc1ccc(CC[N+]2(C)COc3cc4oc(=O)cc(C)c4cc3C2)cc1OC (stereo unspecified)
inactive: A549 > 100 µM | COLO 205 > 100 µM | DU-145 > 100 µM | HCT-116 > 100 µM | Hs-578T > 100 µM | IGROV-1 > 100 µM | M14 > 100 µM | MDA-MB-231 > 100 µM | MDA-MB-435 > 100 µM | MOLT-4 1.61 µM | NCI-H23 > 100 µM | NCI/ADR-RES > 100 µM | OVCAR-4 > 100 µM | SF-295 > 100 µM | SK-MEL-28 > 100 µM | SK-MEL-5 > 100 µM | SNB-19 > 100 µM | UACC-62 > 100 µM | UO-31 > 100 µM

COc1cc(CC2c3cc(OC)c(OC)cc3CCN2C)c(C(=O)O)cc1OC (stereo unspecified)
inactive: A549 > 100 µM | COLO 205 > 100 µM | HCT-116 > 100 µM | LXFL 529 > 100 µM | M14 > 100 µM | MOLT-4 > 100 µM | NCI-H23 > 100 µM | SF-295 > 100 µM | SK-MEL-28 > 100 µM | SK-MEL-5 > 100 µM | SNB-19 > 100 µM | UACC-62 > 100 µM | UO-31 > 100 µM

O=C1C(Cl)=C(Cl)C(=O)C2=C1C1c3ccccc3C2c2ccccc21
inactive: A549 99.1 µM | COLO 205 24.2 µM | DU-145 > 100 µM | HCT-116 55.3 µM | Hs-578T 39.4 µM | IGROV-1 > 100 µM | M14 62.7 µM | MDA-MB-231 31.1 µM | MDA-MB-435 77.4 µM | MOLT-4 > 100 µM | NCI-H23 46.3 µM | NCI/ADR-RES 94.8 µM | OVCAR-4 34.3 µM | SF-295 41.5 µM | SK-MEL-28 38.7 µM | SK-MEL-5 > 100 µM | SNB-19 49.5 µM | UACC-62 30.5 µM | UO-31 47.6 µM

Cc1occc1C(=S)Nc1ccc(Cl)c(C(=O)OCC(C)C)c1
inactive: A549 20.3 µM | COLO 205 16.3 µM | DU-145 18.3 µM | HCT-116 14.4 µM | Hs-578T 25.1 µM | IGROV-1 18.1 µM | M14 22.8 µM | MDA-MB-231 16.6 µM | MDA-MB-435 16.5 µM | MOLT-4 11.5 µM | NCI-H23 17.1 µM | NCI/ADR-RES 12.9 µM | OVCAR-4 13.3 µM | SF-295 16.6 µM | SK-MEL-28 16.3 µM | SK-MEL-5 15.4 µM | SNB-19 17.1 µM | UACC-62 12.6 µM | UO-31 17.7 µM

Cc1cc2c(nn1)-c1ccccc1C2=O
inactive: A549 > 10 µM | COLO 205 > 10 µM | DU-145 > 10 µM | HCT-116 > 10 µM | Hs-578T > 10 µM | IGROV-1 > 10 µM | M14 > 10 µM | MDA-MB-231 > 10 µM | MDA-MB-435 > 10 µM | MOLT-4 > 10 µM | NCI-H23 > 10 µM | NCI/ADR-RES > 10 µM | OVCAR-4 > 10 µM | SF-295 > 10 µM | SK-MEL-28 > 10 µM | SK-MEL-5 > 10 µM | SNB-19 > 10 µM | UACC-62 > 10 µM | UO-31 > 10 µM

NC(=O)CNC(=O)C1CCCN1C(=O)C1CCCCNOC(=O)CCC(NC(=O)OCC2c3ccccc3-c3ccccc32)C(=O)NC(Cc2c[nH]c3ccccc23)C(=O)N1 (stereo unspecified) (Fmoc-EW[X36]PG-NH2; ester 1-3; configuration not given here)
inactive: A549 > 100 µM | COLO 205 > 100 µM | DU-145 > 100 µM | HCT-116 > 100 µM | Hs-578T > 100 µM | IGROV-1 > 100 µM | M14 54.3 µM | MDA-MB-231 15.2 µM | MDA-MB-435 > 100 µM | MOLT-4 > 100 µM | NCI-H23 > 100 µM | NCI/ADR-RES > 100 µM | OVCAR-4 > 100 µM | SF-295 > 100 µM | SK-MEL-28 > 100 µM | SK-MEL-5 > 100 µM | SNB-19 > 100 µM | UACC-62 > 100 µM | UO-31 24.9 µM

CC(C)(C)OC(=O)NCCCCC(NC(=O)C(Cc1c[nH]c2ccccc12)NC(=O)OCC1c2ccccc2-c2ccccc21)C(=O)O (stereo unspecified) (Fmoc-Trp-Lys(Boc)-OH; configuration not given here)
inactive: A549 > 100 µM | COLO 205 64.7 µM | DU-145 76.4 µM | HCT-116 32 µM | Hs-578T 30.3 µM | IGROV-1 52.2 µM | M14 77.3 µM | MDA-MB-231 27.5 µM | MDA-MB-435 49.5 µM | MOLT-4 19.8 µM | NCI-H23 31 µM | NCI/ADR-RES > 100 µM | OVCAR-4 33.7 µM | SF-295 62.7 µM | SK-MEL-28 26.3 µM | SK-MEL-5 90.2 µM | SNB-19 27.3 µM | UACC-62 20.9 µM | UO-31 68.7 µM
